As usually defined, the Ki is the equilibrium dissociation constant of an inhibitor or competing ligand from its target.

Assay [1] addresses Sodium-dependent noradrenaline transporter (Homo sapiens, UniProt P23975). Nature of the assay: PDSP Secondary Binding target: SLC6A2 - Compounds are tested at 10 uM concentration, plate are incubated at room temperature in the dark for 90 minutes. Reaction are stopped by vacuum filtration onto 0.3% polyethyleneimine soaked filter mats using Filtermate harvester. Scintillation cocktail is then melted onto microwave-dried filters on a hot plate and the radio activity is counted in Microbia counter.

The target of assay [2] is Sodium-dependent serotonin transporter (Homo sapiens, UniProt P31645). Nature of the assay: PDSP Secondary Binding target: SLC6A4 - Compounds are tested at 10 uM concentration, plate are incubated at room temperature in the dark for 90 minutes. Reaction are stopped by vacuum filtration onto 0.3% polyethyleneimine soaked filter mats using Filtermate harvester. Scintillation cocktail is then melted onto microwave-dried filters on a hot plate and the radio activity is counted in Microbia counter.
Sequence of Sodium-dependent serotonin transporter (P31645 whole entry): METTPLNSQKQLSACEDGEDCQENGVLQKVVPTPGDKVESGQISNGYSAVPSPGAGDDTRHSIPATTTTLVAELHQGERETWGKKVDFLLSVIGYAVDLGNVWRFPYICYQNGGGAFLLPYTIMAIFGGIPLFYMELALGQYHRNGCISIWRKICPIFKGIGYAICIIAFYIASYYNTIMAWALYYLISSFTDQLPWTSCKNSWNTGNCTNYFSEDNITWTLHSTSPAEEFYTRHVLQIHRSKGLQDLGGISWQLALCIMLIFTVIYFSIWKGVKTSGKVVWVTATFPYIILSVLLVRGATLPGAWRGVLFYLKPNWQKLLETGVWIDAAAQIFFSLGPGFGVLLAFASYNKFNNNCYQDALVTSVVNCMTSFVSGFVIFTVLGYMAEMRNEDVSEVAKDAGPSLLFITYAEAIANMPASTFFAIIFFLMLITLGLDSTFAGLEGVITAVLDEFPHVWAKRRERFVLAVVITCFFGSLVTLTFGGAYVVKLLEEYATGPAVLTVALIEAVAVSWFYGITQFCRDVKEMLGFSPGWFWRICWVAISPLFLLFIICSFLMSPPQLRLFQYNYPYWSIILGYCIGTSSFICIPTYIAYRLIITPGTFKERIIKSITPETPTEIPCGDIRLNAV

A further assay deals with Translocator protein (Homo sapiens, UniProt P30536). Nature of the assay: PDSP Secondary Binding target: TSPO - Compounds are tested at 10 uM concentration, plate are incubated at room temperature in the dark for 90 minutes. Reaction are stopped by vacuum filtration onto 0.3% polyethyleneimine soaked filter mats using Filtermate harvester. Scintillation cocktail is then melted onto microwave-dried filters on a hot plate and the radio activity is counted in Microbia counter.
Sequence of Translocator protein (P30536 whole entry): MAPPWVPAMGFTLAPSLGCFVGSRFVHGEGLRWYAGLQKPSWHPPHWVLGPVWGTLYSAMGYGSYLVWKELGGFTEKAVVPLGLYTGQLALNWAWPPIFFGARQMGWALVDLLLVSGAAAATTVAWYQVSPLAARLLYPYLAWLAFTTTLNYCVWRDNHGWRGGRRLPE

In the next assay the target is D(3) dopamine receptor (Homo sapiens, UniProt P35462). Briefly: PDSP Secondary Binding target: DRD3 - Compounds are tested at 10 uM concentration, plate are incubated at room temperature in the dark for 90 minutes. Reaction are stopped by vacuum filtration onto 0.3% polyethyleneimine soaked filter mats using Filtermate harvester. Scintillation cocktail is then melted onto microwave-dried filters on a hot plate and the radio activity is counted in Microbia counter.
Sequence of D(3) dopamine receptor (P35462 whole entry): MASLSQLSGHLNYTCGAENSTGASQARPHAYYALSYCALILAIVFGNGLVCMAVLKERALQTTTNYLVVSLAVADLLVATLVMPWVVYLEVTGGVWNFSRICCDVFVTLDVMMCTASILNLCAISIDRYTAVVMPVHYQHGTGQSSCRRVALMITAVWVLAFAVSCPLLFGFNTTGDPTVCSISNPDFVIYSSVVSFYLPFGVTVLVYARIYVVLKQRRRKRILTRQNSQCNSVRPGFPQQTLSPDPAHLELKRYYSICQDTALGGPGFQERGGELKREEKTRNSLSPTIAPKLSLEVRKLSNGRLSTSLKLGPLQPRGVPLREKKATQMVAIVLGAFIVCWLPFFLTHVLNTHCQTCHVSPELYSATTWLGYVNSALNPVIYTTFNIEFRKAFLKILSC

The target of assay [3] is 5-hydroxytryptamine receptor 5A (Homo sapiens, UniProt P47898). Briefly: PDSP Secondary Binding target: HTR5A - Compounds are tested at 10 uM concentration, plate are incubated at room temperature in the dark for 90 minutes. Reaction are stopped by vacuum filtration onto 0.3% polyethyleneimine soaked filter mats using Filtermate harvester. Scintillation cocktail is then melted onto microwave-dried filters on a hot plate and the radio activity is counted in Microbia counter.
Sequence of 5-hydroxytryptamine receptor 5A (P47898 whole entry): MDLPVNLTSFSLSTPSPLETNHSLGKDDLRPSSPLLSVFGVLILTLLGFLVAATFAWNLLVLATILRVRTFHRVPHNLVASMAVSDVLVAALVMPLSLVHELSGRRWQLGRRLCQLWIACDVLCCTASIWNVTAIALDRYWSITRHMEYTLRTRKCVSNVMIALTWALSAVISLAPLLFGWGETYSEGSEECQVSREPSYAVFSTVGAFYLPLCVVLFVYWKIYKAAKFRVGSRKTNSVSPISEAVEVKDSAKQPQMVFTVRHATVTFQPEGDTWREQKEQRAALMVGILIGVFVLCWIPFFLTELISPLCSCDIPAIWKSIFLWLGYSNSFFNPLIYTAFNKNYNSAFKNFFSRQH

Some results are limits rather than exact numbers.

Sequence of Sodium-dependent noradrenaline transporter (P23975 whole entry): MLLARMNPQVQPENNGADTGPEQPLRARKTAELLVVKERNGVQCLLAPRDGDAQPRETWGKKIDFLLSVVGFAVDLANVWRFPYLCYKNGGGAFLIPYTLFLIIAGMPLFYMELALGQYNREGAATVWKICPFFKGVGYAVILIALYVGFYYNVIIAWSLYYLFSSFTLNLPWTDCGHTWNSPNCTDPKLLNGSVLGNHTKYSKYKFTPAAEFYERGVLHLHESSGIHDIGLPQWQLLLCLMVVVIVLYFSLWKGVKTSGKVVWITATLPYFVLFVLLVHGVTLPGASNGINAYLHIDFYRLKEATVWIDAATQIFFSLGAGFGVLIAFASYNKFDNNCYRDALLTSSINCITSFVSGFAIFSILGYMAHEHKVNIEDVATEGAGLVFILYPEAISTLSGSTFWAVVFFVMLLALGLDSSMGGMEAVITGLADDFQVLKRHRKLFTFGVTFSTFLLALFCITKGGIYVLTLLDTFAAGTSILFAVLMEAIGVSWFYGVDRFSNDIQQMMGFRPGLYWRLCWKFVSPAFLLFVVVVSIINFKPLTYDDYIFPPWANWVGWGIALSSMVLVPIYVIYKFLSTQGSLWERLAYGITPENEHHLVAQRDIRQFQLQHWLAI

Consider `CCCNS(=O)(=O)Nc1ncnc(OCCOc2ncc(Br)cn2)c1-c1ccc(Br)cc1`, for which the Ki in assay [1] was 4.83 µM; in assay [2] it was above 10 µM; on Translocator protein it was 2.12 µM; on D(3) dopamine receptor, 1 µM.
Regarding `O=C(O)c1n[nH]c2c1C[C@H]1C[C@@H]21`, the Ki was above 10 µM in assay [1], 2.43 µM in assay [2] and above 10 µM in assay [3].
Regarding `CCCCCNC(=O)NS(=O)(=O)c1cc([N+](=O)[O-])ccc1NC1CCCCC1`, the Ki worked out at 6.91 µM in assay [1], 7.77 µM in assay [2] and 2.58 µM at D(3) dopamine receptor.
